# Data as given in the NIST ThermoML archive (doi:10.1021/acs.jced.5b00814).
# Numbers after ± are expanded uncertainties.
# What was measured:
# [1] = Crystal; DTA
# [2] = Molar enthalpy of transition or fusion; settings: Crystal; DSC
structure (smiles),measurement,setting,value
O=C(O)/C=C/c1ccccc1 [(E)-cinnamic acid],Normal melting temperature,[1],133.00 ± 0.7 °C
same,Molar enthalpy of transition or fusion,[2],5.31 ± 0.203 kcal/mol
